Data: ChEMBL document CHEMBL1201862, “PubChem BioAssay data set” (2004)
Several values for one entry are separate records, joined by “and”; a condition that tells them apart may be missing. Equal values may be shown once.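 All cell lines were grown in 96-well plates and treated with compound for 48 hours. At the GI50, growth is halved.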 Activity calls are given as the source filed them. Rule as the data show it: active = GI50 up to about 1.1 µM and inactive = higher.

What was measured:
Assay in all cases: growth of human tumour cells (NCI), 48 h
MCF7 = system: MCF7
SNB-78 = system: SNB-78
M19-MEL = system: M19-MEL
OVCAR-8 = system: OVCAR-8
DLD-1 = system: DLD-1
MOLT-4 = system: MOLT-4
T47D = system: T47D
UO-31 = system: UO-31
Hs-578T = system: Hs-578T
XF498 = system: XF498
RXF 393 = system: RXF 393
K562 = system: K562
NCI-H460 = system: NCI-H460
HCT-15 = system: HCT-15
SN12C = system: SN12C
HT-29 = system: HT-29
CAKI-1 = system: CAKI-1
HOP-18 = system: HOP-18
UACC-257 = system: UACC-257
SK-MEL-2 = system: SK-MEL-2
Malme-3M = system: Malme-3M
HCC 2998 = system: HCC 2998
SK-MEL-5 = system: SK-MEL-5
SF-295 = system: SF-295
KM12 = system: KM12
SF-268 = system: SF-268
DU-145 = system: DU-145
BT-549 = system: BT-549
TK-10 = system: TK-10
ACHN = system: ACHN
786-0 = system: 786-0
MDA-MB-435 = system: MDA-MB-435
NCI/ADR-RES = system: NCI/ADR-RES
OVCAR-4 = system: OVCAR-4
IGROV-1 = system: IGROV-1
M14 = system: M14
MDA-N = system: MDA-N
HOP-62 = system: HOP-62
HL-60 = system: HL-60
SK-MEL-28 = system: SK-MEL-28
SK-OV-3 = system: SK-OV-3
COLO 205 = system: COLO 205
MDA-MB-231 = system: MDA-MB-231
OVCAR-3 = system: OVCAR-3
RPMI-8226 = system: RPMI-8226
SF-539 = system: SF-539
U-251 = system: U-251
OVCAR-5 = system: OVCAR-5
NCI-H23 = system: NCI-H23
SNB-75 = system: SNB-75
PC-3 = system: PC-3
NCI-H522 = system: NCI-H522
CCRF-CEM = system: CCRF-CEM
HOP-92 = system: HOP-92
KM-20L2 = system: KM-20L2
EKVX = system: EKVX
UACC-62 = system: UACC-62
LOX IMVI = system: LOX IMVI
DMS-273 = system: DMS-273
SNB-19 = system: SNB-19
NCI-H226 = system: NCI-H226
SW-620 = system: SW-620
HCT-116 = system: HCT-116
A549 = system: A549
DMS-114 = system: DMS-114
A498 = system: A498
SR = system: SR

## COc1ccc(/C=C2\C(=O)NC(=O)c3ccccc32)cc1OC
MCF7
  GI50: 56.9 µM (inactive)
SNB-78
  GI50: 6.58 µM (inactive)
M19-MEL
  GI50: 41 µM (inactive)
OVCAR-8
  GI50: 10.1 µM (inactive)
DLD-1
  GI50: 4.81 µM (inactive)
MOLT-4
  GI50: 5.77 µM (inactive)
T47D
  GI50: > 100 µM (inactive)
UO-31
  GI50: 29.9 µM (inactive)
Hs-578T
  GI50: 53.5 µM (inactive)
XF498
  GI50: 6.71 µM (inactive)
RXF 393
  GI50: 12.2 µM (inactive)
K562
  GI50: 3.15 µM (inactive)
NCI-H460
  GI50: 45.6 µM (inactive)
HCT-15
  GI50: 20.5 µM
SN12C
  GI50: 42.3 µM (inactive)
HT-29
  GI50: 54.8 µM (inactive)
CAKI-1
  GI50: 26.7 µM (inactive)
HOP-18
  GI50: > 100 µM (inactive)
UACC-257
  GI50: > 100 µM (inactive)
SK-MEL-2
  GI50: 45.3 µM (inactive)
Malme-3M
  GI50: > 86.9 µM (inactive)
HCC 2998
  GI50: > 46.6 µM (inactive)
SK-MEL-5
  GI50: 37.7 µM (inactive)
SF-295
  GI50: 52.2 µM (inactive)
KM12
  GI50: 39.4 µM (inactive)
SF-268
  GI50: 18.2 µM (inactive)
DU-145
  GI50: > 100 µM (inactive)
BT-549
  GI50: > 100 µM (inactive)
TK-10
  GI50: > 100 µM (inactive)
ACHN
  GI50: 32.2 µM (inactive)
786-0
  GI50: 16.8 µM (inactive)
MDA-MB-435
  GI50: 30.1 µM (inactive)
NCI/ADR-RES
  GI50: 42.2 µM (inactive)
OVCAR-4
  GI50: 34.6 µM (inactive)
IGROV-1
  GI50: 13.8 µM (inactive)
M14
  GI50: 57.5 µM (inactive)
MDA-N
  GI50: > 43.6 µM (inactive)
HOP-62
  GI50: 32.5 µM (inactive)
HL-60
  GI50: 2.68 µM (inactive)
SK-MEL-28
  GI50: > 77.3 µM (inactive)
SK-OV-3
  GI50: 36.3 µM (inactive)
COLO 205
  GI50: 50.4 µM (inactive)
MDA-MB-231
  GI50: 48.2 µM (inactive)
OVCAR-3
  GI50: 7.48 µM (inactive)
RPMI-8226
  GI50: 5.47 µM (inactive)
SF-539
  GI50: 9.12 µM (inactive)
U-251
  GI50: 11.8 µM (inactive)
OVCAR-5
  GI50: 60.8 µM (inactive)
NCI-H23
  GI50: 49.8 µM (inactive)
SNB-75
  GI50: 37.4 µM (inactive)
PC-3
  GI50: 45.2 µM (inactive)
NCI-H522
  GI50: 16.2 µM (inactive)
CCRF-CEM
  GI50: 1.09 µM (active)
HOP-92
  GI50: 7.96 µM (inactive)
KM-20L2
  GI50: 5.07 µM (inactive)
EKVX
  GI50: 31.6 µM (inactive)
UACC-62
  GI50: 25.6 µM (inactive)
LOX IMVI
  GI50: 10.5 µM (inactive)
DMS-273
  GI50: 21.4 µM (inactive)
SNB-19
  GI50: 25.5 µM (inactive)
NCI-H226
  GI50: 49.4 µM (inactive)
SW-620
  GI50: 16.6 µM (inactive)
HCT-116
  GI50: 6.78 µM (inactive)
A549
  GI50: 48.2 µM (inactive)
DMS-114
  GI50: 5 µM (inactive)
A498
  GI50: > 66.5 µM (inactive)
SR
  GI50: 2.42 µM (inactive)

## Nc1ncnc2c1ncn2C1OC(CO)C(O)C1O (stereo unspecified)
SNB-78
  GI50: > 450 µM (inactive)
M19-MEL
  GI50: 333 µM (inactive)
DLD-1
  GI50: > 373 µM (inactive)
T47D
  GI50: 77.3 µM (inactive)
XF498
  GI50: > 450 µM (inactive)
RXF 393
  GI50: 104 µM (inactive)
NCI-H460
  GI50: 22.3 µM (inactive)
SN12C
  GI50: 136 µM (inactive)
HOP-18
  GI50: 107 µM (inactive)
SK-MEL-2
  GI50: 97.1 µM (inactive)
Malme-3M
  GI50: 274 µM (inactive)
HCC 2998
  GI50: 34.9 µM (inactive) and 43.4 µM (inactive)
SF-268
  GI50: 232 µM (inactive)
DU-145
  GI50: 22.9 µM (inactive)
TK-10
  GI50: > 100 µM (inactive)
ACHN
  GI50: 40.6 µM (inactive)
786-0
  GI50: 43.3 µM (inactive)
MDA-MB-435
  GI50: > 100 µM (inactive)
NCI/ADR-RES
  GI50: 117 µM (inactive)
M14
  GI50: > 100 µM (inactive)
MDA-N
  GI50: > 100 µM (inactive)
HOP-62
  GI50: 61.9 µM (inactive) and 70.5 µM (inactive)
MDA-MB-231
  GI50: > 100 µM (inactive)
SF-539
  GI50: 179 µM (inactive)
SNB-75
  GI50: 117 µM (inactive)
PC-3
  GI50: 31 µM (inactive)
CCRF-CEM
  GI50: 36.7 µM (inactive) and 34.3 µM (inactive)
KM-20L2
  GI50: 234 µM (inactive)
LOX IMVI
  GI50: 84.3 µM (inactive) and 44.2 µM (inactive)
DMS-273
  GI50: 103 µM (inactive)
SW-620
  GI50: 153 µM (inactive)
HCT-116
  GI50: 106 µM (inactive) and 58.2 µM (inactive)
A549
  GI50: 132 µM (inactive)
DMS-114
  GI50: 68.1 µM (inactive)
